Test results: PMC6154706, “Inhibitory Effect of Triterpenoids from Panax ginseng on Coagulation Factor X” (Molecules : A Journal of Synthetic Chemistry and Natural …, 2017)
Read-outs that look alike come from different tables or passages of the source.

What was measured:
Platelet poor plasma = test: Blood clotting time in vitro (APTT, PT, TT); format: biochemical, rats; conditions: PT and TT tests, final concentration 0.05 mg/mL
Procedure: Rats were anaesthetized with 10% chloral hydrate (3 mL/kg). The blood obtained from the abdominal aorta was collected directly into citrated tubes containing 3.8% sodium citrate (1:9 (v/v)) and was used immediately after collection. Platelet poor plasma […] was prepared by centrifuging the blood at 3000 rpm for 20 min at 20 °C [24]. Plasma samples with jaundice, chylus, hemolysis and blood clot were excluded prior to the assays. Plasma mixtures were 90 μL of PRP with 10 μL of tested compounds (0.5 mg/mL, dissolved in DMSO). For PRP in the solvent group, the sample was 90 μL of PRP with 10 μL of DMSO. For PRP in the normal control group, the plasma was not-treated PRP sample. For PRP in the heparin group, the sample was 90 μL of PRP with 10 μL of heparin (0.1 mg/mL), which was used as the positive control drug.
Blood coagulation assays were carried out using a coagulation analyzer at the Blood Center clinical laboratory in the Second Hospital affiliated to Jilin University (Changchun, China). Measurements of APTT, PT and TT were performed according to the manufacturer’s recommended protocols. The anti-coagulant activity was expressed as clotting time ± standard deviation (S.D.). Briefly, for APTT assay, 50 μL of the plasma mixture was incubated at 37 °C for 60 s and the mixture was added to the APTT reagent (50 μL) and incubated at 37 °C for 15 min. Finally, APTT values were recorded. For the PT assay, 50 μL of the plasma mixture was incubated at 37 °C for 60 s and then added into the PT reagent (100 μL) prior to incubation at 37 °C for 15 min before the PT values were recorded. For the TT assay, 80 μL of the plasma mixture was incubated at 37 °C for 60 s before the addition of 80 μL of TT reagent for 100 s. TT values were determined by the coagulation analyzer.

thrombus = tested on: thrombus; design: method as in PMID 24412029, PMID 22216842; conditions: rat models, orally administered; cited from earlier work
FXa = tested on: FXa; design: method as in PMID 24412029, PMID 22216842; conditions: cited from earlier work
[1] = target: T1, coagulation factor Xa (FXa) (Bos taurus, UniProt P00743); test: FXa activity assay in vitro (chromogenic substrate method); format: biochemical
T1 construct: purchased New England Biolabs (Hitchin, UK)
T1 sequence (P00743 41-180): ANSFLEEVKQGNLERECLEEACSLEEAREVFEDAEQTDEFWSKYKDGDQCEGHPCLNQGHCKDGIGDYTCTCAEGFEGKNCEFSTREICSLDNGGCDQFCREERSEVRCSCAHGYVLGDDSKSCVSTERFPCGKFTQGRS
T1 sequence (P00743 234-492): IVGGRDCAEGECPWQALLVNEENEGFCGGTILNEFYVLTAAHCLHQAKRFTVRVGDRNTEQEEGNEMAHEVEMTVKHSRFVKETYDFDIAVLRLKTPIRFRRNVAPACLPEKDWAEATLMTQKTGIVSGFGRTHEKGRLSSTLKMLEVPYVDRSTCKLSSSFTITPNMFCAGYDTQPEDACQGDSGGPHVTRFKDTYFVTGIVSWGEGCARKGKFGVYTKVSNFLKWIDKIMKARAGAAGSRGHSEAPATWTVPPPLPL
Procedure: 10 µL of FXa (final concentration of 0.5 nM), 40 µL of Tris buffer (adjusted to pH 7.4 with HCl containing 0.3 M NaCl and 50 mM Tris) and 10 µL of test compounds were added to the well, respectively. The negative control was performed using the same mixed solutions except that the test compound was replaced with DMSO. […] After 15 min of incubation at 37 °C, FXa substrate (40 μL, final concentration of […]) was added and then was incubated 37 °C for 25 min [3]. The optical density (OD) values at 405 nm were evaluated by an automated microplate reader. […] Inhibition rate was calculated by the following formula: Anti-FXa activity = (V0 − Vi)/V0 [21]. The IC50 value was subsequently calculated by SPSS 19.0.

blood coagulation = conditions: 0.05 mg/mL final concentration vs 0.1 mg/mL heparin; cited from earlier work
human FIIa (thrombin) = target: T2, human FIIa (thrombin) (Homo sapiens, UniProt P00734); test: Thrombin inhibition in vitro (chromogenic substrate CS-01(38)); format: biochemical; conditions: pH 7.4, 37 °C, 405 nm
T2 construct: purchased Hyphen BioMed (Paris, France)
Procedure: The inhibition of thrombin was evaluated by human FIIa and chromogenic substrate CS-01(38) in 96-well microtiter plates at room temperature. Compounds 5, 13 and 18 as well as the positive reagent Ximelagatran were dissolved in DMSO to a concentration of 1mM and then serially diluted to a range of 10 μM to 100 μM, respectively. 8 μL of FIIa (3 NIH U/mL), 80 μL of Tris buffer (adjusted to pH 7.4 with HCl) containing 0.3 M NaCl and 50 mM Tris and 8 μL of test compounds were added to the well, respectively. The negative control was performed using the same mixed solutions except that tested compounds were replaced with DMSO. The positive control was performed using the same mixed solutions except that the test compounds were replaced with ximelagatran. After incubation at 37 °C for 15 min, 12 μL of FIIa substrate solution (4 mM) was added and then incubated at 37 °C for 25 min [3]. The anti-FIIa activity was measured at 405 nm using a microplate reader.

[2] = FXa 0.5 nM, pH 7.4, 37 °C, OD 405 nm, read-out: IC50 against coagulation factor Xa (FXa)

## ginsenoside Rg3
Platelet poor plasma
  In vitro anti-coagulation activity versus normal control: best bioactivity (p < 0.01)

## CC1(C)[C@@H](O)CC[C@]2(C)[C@H]3C(=O)C=C4[C@@H]5C[C@@](C)(C(=O)O)CC[C@]5(C)CC[C@@]4(C)[C@]3(C)CC[C@@H]12 [glycyrrhetinic acid]
thrombus
  Thrombus weight: reduce thrombus weight
FXa
  Inhibition of FXa activity in vitro: significantly inhibit FXa activity in vitro with specificity

## CC(C)=CCC[C@](C)(O[C@@H]1O[C@H](CO)[C@@H](O)[C@H](O)[C@H]1O)[C@H]1CC[C@]2(C)[C@@H]1[C@H](O)C[C@@H]1[C@@]3(C)CC[C@H](O)C(C)(C)[C@@H]3[C@@H](O)C[C@]12C [F1, ginsenoside F1]
[1]; [2]
  IC50: 0.227 µM
Platelet poor plasma
  In vitro anti-coagulation activity versus normal control: significant anti-coagulation activity

## CC(C)=CCC[C@](C)(O)[C@H]1CC[C@]2(C)[C@@H]1[C@H](O)C[C@@H]1[C@@]3(C)CC[C@H](O)C(C)(C)[C@@H]3[C@@H](O[C@@H]3O[C@H](CO)[C@@H](O)[C@H](O)[C@H]3O)C[C@]12C [Rh1, ginsenoside Rh1]
[1]
  IC50: 0.236 µM
Platelet poor plasma
  In vitro anti-coagulation activity versus normal control: significant anti-coagulation activity

## CC(C)=CCC[C@](C)(O)[C@H]1CC[C@]2(C)[C@@H]1[C@H](O)C[C@@H]1[C@@]3(C)CC[C@H](O)C(C)(C)[C@@H]3[C@@H](O[C@@H]3O[C@H](CO)[C@@H](O)[C@H](O)[C@H]3O[C@@H]3O[C@@H](C)[C@H](O)[C@@H](O)[C@H]3O)C[C@]12C [Rg2, ginsenoside Rg2]
Blood coagulation
  Anti-coagulant activities in vitro compared to heparin: significantly better anti-coagulant activities
[1]; [2]
  IC50: 0.136 µM
Platelet poor plasma
  In vitro anti-coagulation activity versus normal control: best bioactivity (p < 0.01)
Human FIIa (thrombin)
  IC50: 81.3 µM

## CC(C)=CCCC(C)(O)C1CCC2(C)C1C(O)CC1C3(C)CCC(O)C(C)(C)C3CCC12C (centres unmarked) [PPD, protopanaxdiol]
[1]; [2]
  IC50: 0.339 µM
Platelet poor plasma
  In vitro anti-coagulation activity versus normal control: significant anti-coagulation activity

## CC(C)=CCC[C@](C)(O)[C@H]1CC[C@]2(C)[C@@H]1[C@H](O)C[C@@H]1[C@@]3(C)CC[C@H](O[C@@H]4O[C@H](CO)[C@@H](O)[C@H](O)[C@H]4O)C(C)(C)[C@@H]3CC[C@]12C [Rh2, ginsenoside Rh2]
[1]
  IC50: 0.349 µM
Platelet poor plasma
  In vitro anti-coagulation activity versus normal control: significant anti-coagulation activity

## 20(R)-Rg3
Platelet poor plasma
  In vitro anti-coagulation activity versus normal control: insignificant anti-coagulation effects

## CC(C)=CCC[C@](C)(O)[C@H]1CC[C@]2(C)[C@@H]1[C@H](O)C[C@@H]1[C@@]3(C)CC[C@H](O)C(C)(C)[C@@H]3[C@@H](O[C@@H]3O[C@H](CO)[C@@H](O)[C@H](O)[C@H]3O[C@@H]3O[C@H](CO)[C@@H](O)[C@H](O)[C@H]3O)C[C@]12C [Rf, ginsenoside Rf]
[1]; [2]
  IC50: 1.03 µM
Platelet poor plasma
  In vitro anti-coagulation activity versus normal control: insignificant anti-coagulation effects

## CC(C)=CCC[C@](C)(O[C@@H]1O[C@H](CO)[C@@H](O)[C@H](O)[C@H]1O)[C@H]1CC[C@]2(C)[C@@H]1[C@H](O)C[C@@H]1[C@@]3(C)CC[C@H](O)C(C)(C)[C@@H]3[C@@H](O[C@@H]3O[C@H](CO)[C@@H](O)[C@H](O)[C@H]3O)C[C@]12C [Rg1, ginsenoside Rg1]
Blood coagulation
  Anti-coagulant activities in vitro compared to heparin: significantly better anti-coagulant activities
[1]; [2]
  IC50: 0.335 µM
Platelet poor plasma
  In vitro anti-coagulation activity versus normal control: significant anti-coagulation activity

## CC(C)=CCCC(C)(O)C1CCC2(C)C1C(O)CC1C3(C)CCC(O)C(C)(C)C3C(O)CC12C (centres unmarked) [PPT, protopanaxtriol]
[1]; [2]
  IC50: 0.141 µM
Platelet poor plasma
  In vitro anti-coagulation activity versus normal control: best bioactivity (p < 0.01)
Human FIIa (thrombin)
  IC50: 82 µM

## CC(C)=CCC[C@](C)(O[C@@H]1O[C@H](CO)[C@@H](O)[C@H](O)[C@H]1O)[C@H]1CC[C@]2(C)[C@@H]1[C@H](O)C[C@@H]1[C@@]3(C)CC[C@H](O[C@@H]4O[C@H](CO)[C@@H](O)[C@H](O)[C@H]4O)C(C)(C)[C@@H]3CC[C@]12C [F2, ginsenoside F2]
[1]; [2]
  IC50: 0.425 µM
Platelet poor plasma
  In vitro anti-coagulation activity versus normal control: significant anti-coagulation activity
